Experimental data published in ChEMBL document CHEMBL4334521, “Neuroprotective Dihydro-β-agarofuran-Type Sesquiterpenes from the Seeds of Euonymus maackii” (2019).
Activity calls are given as the source filed them. No cut-off for these calls is given here.

Experiments:
SH-SY5Y = experiment: Neuroprotective activity against amyloid beta (25 to 35)-induced cytotoxicity in human SH-SY5Y cells at 10 uM preincubated for 2 hrs followed by amyloid beta (25 to 35)-stimulation and measured after 24 hrs by MTT assay (reference value: 71.18 +/- 1.34); format: functional
Danio rerio = organism: Danio rerio; experiment: Neuroprotective activity against PTZ-induced seizure in zebra fish AB at 10 uM pretreated for 24 hrs followed by PTZ-stimulation and measured after 15 mins; format: functional, organism-based

| Compound | Activity (SH-SY5Y) [%] | Activity (Danio rerio) |
| --- | --- | --- |
| CC(=O)OC[C@]12[C@H](OC(=O)c3ccoc3)C[C@@H]3[C@@H](OC(C)=O)[C@]1(OC3(C)C)[C@@](C)(O)C[C@H](OC(=O)c1ccccc1)[C@@H]2OC(=O)c1ccoc1 | 80.8 | – |
| CC(=O)OC[C@]12[C@H](OC(=O)c3ccoc3)C[C@@H]3[C@@H](OC(C)=O)[C@]1(OC3(C)C)[C@@](C)(O)C[C@H](OC(=O)c1ccoc1)[C@@H]2OC(=O)c1ccoc1 | 70.11 | – |
| CC(=O)OC[C@]12[C@@H](OC(=O)c3ccccc3)C[C@@H]3[C@@H](OC(C)=O)[C@]1(OC3(C)C)[C@H](C)C[C@H](OC(=O)c1ccccc1)[C@@H]2OC(C)=O | 83.04 | inactive |
| CC(=O)OC[C@]12[C@H](OC(C)=O)[C@H](OC(=O)c3ccccc3)[C@@H]3[C@@H](OC(C)=O)[C@]1(OC3(C)C)[C@H](C)C[C@H](O)[C@@H]2OC(=O)c1ccccc1 | 85.91 | – |
| CCC(C)C(=O)O[C@H]1C[C@](C)(O)[C@]23OC(C)(C)[C@H](C[C@@H](OC(=O)c4ccoc4)[C@]2(COC(C)=O)[C@H]1OC(=O)c1ccoc1)[C@H]3OC(C)=O (some centres not stated) | 71 | – |
| CC(=O)OC[C@]12C(=O)[C@@H](OC(=O)c3ccccc3)[C@@H]3[C@@H](OC(C)=O)[C@]1(OC3(C)C)[C@H](C)C[C@H](OC(=O)c1cccnc1)[C@@H]2O | 74.16 | – |
| CC[C@H](C)C(=O)O[C@@H]1[C@H]2[C@@H](OC(C)=O)[C@]3(OC2(C)C)[C@H](C)C[C@H](OC(=O)c2ccccc2)[C@H](OC(=O)c2ccccc2)[C@@]3(COC(C)=O)[C@@H]1OC(C)=O | 80.11 | – |
| CCC(C)C(=O)O[C@H]1C[C@](C)(O)[C@]23OC(C)(C)[C@H](C[C@H](OC(=O)c4ccccc4)[C@]2(COC(C)=O)[C@H]1OC(=O)C(C)CC)[C@H]3OC(C)=O (some centres not stated) | 92.86 | – |
| CC(=O)OC[C@]12[C@H](OC(C)=O)[C@H](OC(=O)c3ccccc3)[C@@H]3[C@@H](OC(C)=O)[C@]1(OC3(C)C)[C@H](C)C[C@H](OC(=O)c1ccccc1)[C@@H]2OC(=O)c1ccccc1 | 80.92 | – |
| CC(=O)OC[C@]12[C@H](OC(C)=O)[C@H](OC(=O)c3ccccc3)[C@@H]3[C@@H](OC(C)=O)[C@]1(OC3(C)C)[C@H](C)C[C@H](OC(C)=O)[C@@H]2OC(=O)c1ccccc1 | 80.75 | Active |
| CCC(C)C(=O)O[C@H]1[C@@H](OC(C)=O)C[C@@H](C)[C@]23OC(C)(C)[C@H](C[C@@H](OC(=O)c4ccccc4)[C@]12COC(C)=O)[C@H]3OC(C)=O (some centres not stated) | 88.34 | – |
| O=C(O[C@@H]1Cc2c(O)cc(O)cc2O[C@@H]1c1cc(O)c(O)c(O)c1)c1cc(O)c(O)c(O)c1 [EPIGALOCATECHIN GALLATE] | 87.2 | – |
| CCC(C)C(=O)O[C@H]1[C@@H](OC(=O)c2ccoc2)C[C@](C)(O)[C@]23OC(C)(C)[C@H](C[C@H](OC(=O)c4ccoc4)[C@]12COC(C)=O)[C@H]3OC(C)=O (some centres not stated) | 82.96 | – |
| CC(=O)OC[C@]12[C@H](OC(=O)c3ccccc3)C[C@@H]3[C@@H](OC(C)=O)[C@]1(OC3(C)C)[C@H](C)C[C@H](OC(C)=O)[C@@H]2OC(C)=O | 79.62 | – |
| CCCCCC(=O)O[C@H]1C[C@@H](C)[C@]23OC(C)(C)[C@H]([C@@H](OC(=O)c4ccccc4)[C@@H](OC(C)=O)[C@]2(COC(C)=O)[C@H]1OC(=O)c1ccccc1)[C@H]3OC(C)=O | 86.65 | – |
